{"source": "patent US12699094B2", "about": "“Fluorescent biosensor for acetyl coenzyme A” (UNIVERSITY OF UTAH RESEARCH FOUNDATION, priority 2023, dated 2026)", "key": {"[1]": {"biological_target": "PancAce (PANcACe), PanZ(R69)-GA-cpGFP-GA-(E70)PanZ, SEQ ID NO: 5; E. coli PanZ with cpGFP insertion (Escherichia coli, UniProt P37613, INS69[…])", "test": "Fluorescence titration of PancAce with acetyl-CoA, CoA and propionyl-CoA", "type": "binding", "description": "Acetyl-CoA and CoA Titration and Spectrum Scans. Assays were done in 384 well plates with […] final well volume. All sensors and control proteins were diluted to 6 μM in protein storage buffer. Acetyl-CoA and CoA were dissolved in water at a concentration of 60 μM then serial diluted to 30 μM, 15 μM, 6 μM, 3 μM, 0.6 μM, 0.06 μM, and 0.006 μM. Wells were set up in triplicate with 14 μL water, 6 μL assay buffer, and 5 μL sensor. 5 μL of an acetyl-CoA stock or water were added to 1 μM sensor before reading. For Titration curves, plates were read at excitation 485 nm and emission 514 nm. For excitation scans plates were excited from 400 nm to 500 nm at 1 nm increments and emissions were read at […]. For emission scans plates were excited at 485 nm, 427 nm, or 405 nm and emissions were read from 500 nm to 575 nm in 1 nm increments. Triplicates were averaged and plotted for scans and percent difference between no acetyl-CoA and acetyl-CoA wells were calculated for titrations.\nTitrations of acetyl-CoA and CoA with PANcACe and cpGFP alone were performed (FIG. 9). […] Since the insertion site of cpGFP is very close to the acetyl-CoA binding site, this effect was not surprising. […] Further, the selectivity of PANcACe for short-chain acyl-CoAs was tested (FIG. 11). […] A propionyl-CoA titration confirmed this apparent affinity difference (FIG. 12). Since saturation was not achieved up to 10 mM propionyl-CoA, it was assumed that the same maximal sensor response would be achieved for propionyl-CoA as for acetyl-CoA."}, "[2]": {"biological_target": "PanZ(R69)-GA-cpGFP-GA-(E70)PanZ (PancAce), SEQ ID NO: 5 (Escherichia coli, UniProt P37613, INS69[…])", "test": "Linker screen, fluorescence response to 1 mM acetyl-CoA", "type": "biochemical, E. coli", "description": "Linker Length Screen. cpGFP (HTSD1.00) was inserted into 6× histidine tagged PanZ (HTSD1.10) after amino acid R69 with all 16 possible combinations of N- and C-terminal linkers with amino acid sequences GAS, GA, G, no linker using NEBuilder® HiFi DNA Assembly Master Mix (NEB) (HTSD8.00-8.15).\nPosition and Linker Screen. Assays were done in 96 well plates with 100 μL final well volumes. All sensors and control proteins were diluted to 10 μM in protein storage buffer (50 mM Tris pH 7.5, 150 mM NaCl, 10% glycerol). Acetyl-CoA was dissolved in water at a concentration of 10 mM. A 5× assay buffer was used ([…] pH 7.5, 750 mM NaCl). Wells were set up in triplicate with 60 μL water, 20 μL reaction buffer, and 10 μL sensor. Then either 10 μL of water or 10 μL of acetyl-CoA were added to 1 μM sensor before reading. […] Triplicates were averaged and percent difference between no acetyl-CoA and acetyl-CoA wells were calculated."}, "[3]": {"biological_target": "E. coli PanZ (PanZ-CFP fusion protein), SEQ ID NO: 1 (Escherichia coli, UniProt P37613)", "test": "Surface plasmon resonance binding to PanZ-CFP", "details": "SPR", "description": "Surface Plasmon Resonance. Acetyl-CoA and CoA binding to PanZ-CFP were analyzed via SPR using a MASS-1 instrument (Bruker Daltonics, Billerica, MA). Independent experiments were performed using freshly prepared PanZ-CFP, Acetyl-CoA, and CoA stocks on two separate days (surfaces 1 & 2). HLC200 μM sensor surfaces (Xantec Bioanalytics, Düsseldorf, Germany) were activated with EDC/NHS, and then 250 nM PanZ-CFP ligand was captured on the sensor “Spot B” at 10 μL/minute at 2020 RU (surface 1) and 2360 RU (surface 2). The surface was then blocked with […]. The experimental running buffer was 50 mM Tris pH 7.5, 150 mM NaCl, 0.05% Tween-20 for surface 1 replicates and 200 mM Tris pH 7.5, 150 mM NaCl, 0.05% Tween-20 for surface 2 replicates. Experiments were performed at room temperature with a flowrate of 30 μL/minute. A three-fold dilution series (81-0.33 μM) with 1 minute association and 2 minutes dissociation was run in multiple replicates (at least two for each analyte on each surface). Data were double blanked by subtracting the blank in-line control surface (Spot A) and buffer reference injections. Kinetic binding data were globally fit to the Langmuir model for 1:1 binding for each replicate of concentration series using the Sierra Analyser software (version 3.4.1, Bruker Daltonics, Billerica, MA). […]"}, "[4]": {"tested_on": "E. coli (Rosetta DE3 cells)", "experimental": "Plate Reader Refeeding. All assays were done with the BioTek Synergy™ Plate Reader with injectors. All sensors and control proteins were expressed in Rosetta (DE3) cells. PanZ was used as a non-fluorescent control, cpGFP was used as a fluorescent control, and PANcACe was the experimental. Reads were done with excitation 405 nm and 485 nm and emission at 514 nm. Cultures were grown in LB with kanamycin overnight at 37° C. then used to induce new cultures. Cells were grown at 37° C. to an OD600 of 0.6 then induced with 0.5 mM IPTG and grown overnight at 18° C. Cultures were split into 2, 600 μL aliquots and spun at 4000 rpm for 5 minutes.\nGlucose Starvation and Refeeding. The supernatant was discarded and pellets were resuspended in 600 μL either starvation buffer (100 mM NaPO4, 2 mM MgCl2, 15 mM (NH4)2SO4+0 mM glucose) or refed buffer (100 mM NaPO4, 2 mM MgCl2, 15 mM (NH4)2SO4+28 mM glucose). 85 μL was added to 3 wells of a 96 well plate for each sample. […] Plates were read for 10 minutes every 30 seconds with 10 seconds of shaking between reads. […] Plates were read for 60 minutes every 30 seconds with 10 seconds of shaking between reads.\n2-Deoxyglucose Starvation and Refeeding. […] Plates were read for 10 minutes every 30 seconds with 10 seconds of shaking between reads. […] Plates were read for 60 minutes every 30 seconds with 10 seconds of shaking between reads."}, "[5]": {"biological_target": "PancAce (PANcACe), PanZ(R69)-GA-cpGFP-GA-(E70)PanZ, SEQ ID NO: 5 (Escherichia coli, UniProt P37613, INS69[…])", "test": "Acyl-CoA screen, fluorescence response to 1 mM acyl-CoA", "type": "biochemical, E. coli", "details": "FIG. 11, n=3", "description": "Acyl-CoA Screen. Assays were done in 384 well plates with 30 μL final volume. All sensors and control proteins were diluted to 6 μM in protein storage buffer. CoA, acetyl-CoA, propionyl-CoA, butyryl-CoA, malonyl-CoA, and succinyl-CoA were dissolved in water at a concentration of 6 mM. Wells were set up in triplicate with 14 μL water, 6 μL assay buffer, and 5 μL sensor. 5 μL of an acyl-CoA or water were added to 1 μM sensor before reading. Plates were read at excitation 485 nm and emission 514 nm. Triplicates were averaged and percent difference between acyl-CoAs and water were calculated."}}, "data": [{"smiles": "CC(C)(COP(=O)(O)OP(=O)(O)OC[C@H]1O[C@@H](n2cnc3c(N)ncnc32)[C@H](O)[C@@H]1OP(=O)(O)O)[C@@H](O)C(=O)NCCC(=O)NCCS", "note": "[CoA, coenzyme A]", "values": [{"measurement": "sensor response", "setting": "[1]; FIG. 9, acetyl-CoA or CoA titration", "value": "the sensor responds only to acetyl-CoA and not CoA"}, {"measurement": "CoA concentration required to elicit the same sensor response as 100 μM acetyl-CoA", "setting": "[1]; interpolation, saturation not achieved for CoA", "value": 10, "unit": "mM"}]}, {"smiles": "CC(=O)SCCNC(=O)CCNC(=O)[C@H](O)C(C)(C)COP(=O)(O)OP(=O)(O)OC[C@H]1O[C@@H](n2cnc3c(N)ncnc32)[C@H](O)[C@@H]1OP(=O)(O)O", "note": "[acetyl-CoA, acetyl coenzyme A]", "values": [{"measurement": "fold-change in fluorescence emission ((F1−F0)/F0)", "setting": "[2]; 1 mM acetyl-CoA, N-GA/C-GA linkers, λex=485, λem=514 nm", "value": "about 0.6 fold"}, {"measurement": "response of GA/GA linker sensor relative to original AS/AS linker", "setting": "[2]; acetyl-CoA, FIG. 6", "value": "about 2.5 fold"}, {"measurement": "fold higher affinity for acetyl-CoA versus CoA", "setting": "[3]", "value": 7, "unit": "fold"}, {"measurement": "Kd", "setting": "[3]; 1:1 Langmuir fit, average ± standard error, room temperature, pH 7.5", "value": "1700 ± 200", "unit": "nM"}, {"measurement": "lower end of detectable acetyl-CoA concentration range", "setting": "[1]; FIG. 9", "value": "about 10 UM"}, {"measurement": "upper end of detectable acetyl-CoA concentration range", "setting": "[1]; FIG. 9", "value": "about 2 mM"}, {"measurement": "fold higher affinity for acetyl-CoA compared to propionyl-CoA", "setting": "[1]; FIG. 12, λex=485, λem=514 nm, n=3-5", "value": "approximately 2.5 fold"}, {"measurement": "fold lower affinity of PANcACe for acetyl-CoA compared to PanZ", "setting": "[1]; fluorescence Kd,app vs SPR Kd", "value": "about 150 fold"}, {"measurement": "maximum fluorescence response at saturating acetyl-CoA", "setting": "[1]; λex=485, λem=514 nm", "value": "~2", "unit": "fold"}]}, {"smiles": "O=CC[C@@H](O)[C@H](O)[C@H](O)CO", "note": "[2-DG, 2-deoxyglucose]", "values": [{"measurement": "recovery of acetyl-CoA levels (sensor response) upon refeeding", "setting": "[4]; PancAce-expressing cells deprived of glucose 3 hours with 28 mM 2-DG, refed 28 mM glucose, monitored 1 hour", "value": "lower recovery of acetyl-CoA levels upon refeeding"}]}, {"smiles": "CC(=O)O", "note": "[acetate]", "values": [{"measurement": "duration of increase in PancAce signal upon feeding of starved cells", "setting": "[4]; 280 μM acetate, pre-starved PancAce-expressing cells", "value": "about 30 minutes"}]}, {"smiles": "CCC(=O)SCCNC(=O)CCNC(=O)[C@H](O)C(C)(C)COP(=O)(O)OP(=O)(O)OC[C@H]1O[C@@H](n2cnc3c(N)ncnc32)[C@H](O)[C@@H]1OP(=O)(O)O", "note": "[propionyl-CoA]", "values": [{"measurement": "sensor fluorescence response", "setting": "[5]", "value": "some response"}, {"measurement": "fold lower affinity for propionyl-CoA compared to acetyl-CoA", "setting": "[1]; from fitted Kd values", "value": 2.4, "unit": "fold"}, {"measurement": "Kd (estimated)", "setting": "[1]; saturation not achieved up to 10 mM, fit assumes same maximal sensor response as for acetyl-CoA", "value": "626 ± 75", "unit": "µM"}]}]}
